For 37 compounds, IC50 and maximal response results are on record in the supplement of paper PMC3493320.

In assay [1] the test system is NCI-H295R. As to the kind of experiment: IC50 (antiproliferative, ATP content). The following applies: 48 h.
The test system of assay [2] is NCI-H295R. As to the kind of experiment: maximal response (efficacy) relative to DMSO (0%) and doxorubicin (-100%); higher = less growth inhibition. The following applies: 48 h.

Where “and” joins values, the source holds several entries; their conditions need not be identical. Equal entries are not always repeated.

In the case of `Cc1cc(CC(C)CC(C)(C)C)n(O)c(=O)c1.NCCO` (centres undefined), the IC50 (as a rule, the concentration at which inhibition is half-maximal) in the assay on NCI-H295R [1] turned out to be 23.7 µM. In addition, the maximal response in the assay on NCI-H295R [2] was -96.2%.
The like results for `[C@@]32([C@@]([C@@H](/C1=C/C(=O)OC1)CC2)([C@H](O)C[C@H]4[C@H]3CC[C@H]9[C@@]4(CC[C@H](O[C@@H]5O[C@@H]([C@H]([C@H](C5)O)O[C@@H]8O[C@@H]([C@@H](O[C@@H]7O[C@@H]([C@@H](O[C@H]6[C@@H]([C@@H](O)[C@@H]([C@H](O6)CO)O)O)[C@H](C7)OC(=O)C)C)C(C8)O)C)C)C9)C)C)O` (some centres undefined) were, in that order, 0.299 µM and -118%.
`[K+].[K+].[O]=[Cr](=[O])([O-])[O][Cr](=[O])(=[O])[O-]` yielded a concentration for half-maximal inhibition (IC50) in the assay with NCI-H295R [1] of 11.9 µM. In addition, the maximal response in the assay with NCI-H295R [2] was -166%.
`CCCCC(=O)OCC(=O)[C@]1(O)Cc2c(O)c3c(c(O)c2[C@@H](O[C@H]2C[C@H](NC(=O)C(F)(F)F)[C@H](O)[C@H](C)O2)C1)C(=O)c1c(OC)cccc1C3=O` returned an IC50 in the assay on NCI-H295R [1] of 13.3 µM. Further, the maximal response in the assay on NCI-H295R [2] was -71.8%.
For `CC(=O)[C@]1(O)Cc2c(O)c3c(c(O)c2[C@@H](O[C@H]2C[C@H](N)[C@H](O)[C@H](C)O2)C1)C(=O)c1c(O)cccc1C3=O`, the IC50 with NCI-H295R [1] was 1.19 µM and 1.88 µM. Moreover, the maximal response in the assay with NCI-H295R [2] is -123% and -125%.
`CC[C@H](C)[C@H]1O[C@]2(CC[C@@H]1C)C[C@@H]1C[C@@H](C/C=C(\C)[C@@H](O[C@H]3C[C@H](OC)[C@@H](O[C@H]4C[C@H](OC)[C@@H](O)[C@H](C)O4)[C@H](C)O3)[C@@H](C)/C=C/C=C3\CO[C@@H]4[C@H](O)C(C)=C[C@@H](C(=O)O1)[C@]34O)O2` had an IC50 in the assay with NCI-H295R [1] of 4.22 µM. Further, the maximal response with NCI-H295R [2] was -123%.
`S=c1[nH]cnc2[nH]cnc12` registered an IC50 in the assay with NCI-H295R [1] of 2.37 µM. Besides, the maximal response with NCI-H295R [2] was -71.8%.
On the same counts, the results for `O=C(Nc1ccc(Br)cc1)c1cc(Br)cc(Br)c1O` are 5.31 µM and -118%.
On to `Oc1c(I)cc(Cl)c2cccnc12`, for which, in the assay with NCI-H295R [1], the concentration for half-maximal inhibition (IC50) was 8.41 µM. Also, the maximal response in the assay with NCI-H295R [2] was -64.3%.
For the compound `C[C@@]12C(=O)OC(=O)[C@]1(C)C1CCC2O1`, in the assay on NCI-H295R [1], the IC50 came out at 1.43 µM. Besides, the maximal response in the assay on NCI-H295R [2] was -114%.
`Oc1c(I)cc(I)c2cccnc12` came in with an IC50 in the assay on NCI-H295R [1] of 5.31 µM. In the assay on NCI-H295R [2], the maximal response was -82.7%.
The like results for `CCc1nc(N)nc(N)c1-c1ccc(Cl)cc1` were, in that order, 0.75 µM and -81.4%.
The like results for `Oc1c(Cl)cc(Cl)c2cccnc12` were, in that order, 5.31 µM and -105%.
`CC[C@@]1(O)C(=O)OCc2c1cc1n(c2=O)Cc2cc3c([N+](=O)[O-])cccc3nc2-1` registered an IC50 in the assay with NCI-H295R [1] of 16.8 µM. In addition, the maximal response with NCI-H295R [2] is -91.1%.
Consider `Cn1cnc([N+](=O)[O-])c1Sc1ncnc2nc[nH]c12`, for which the IC50 in the assay with NCI-H295R [1] came out at 11.9 µM. In the assay with NCI-H295R [2], the maximal response was -82.1%.
In the assay on NCI-H295R [1], `CC[P](CC)(CC)=[Au][S][C@H]1O[C@@H](COC(C)=O)[C@H](OC(C)=O)[C@@H](OC(C)=O)[C@@H]1OC(C)=O` had an IC50 of 1.88 µM. In the assay on NCI-H295R [2], the maximal response is -128%.
In the case of `O=C(N[C@H](C(N[C@H](C(N[C@@H](C(N[C@H](C(N[C@@H](CCCNC(N)=N)C(N6CCC[C@H]6[C@](NCC)=O)=O)=O)CC(C)C)=O)CC4=CNC5=C4C=CC=C5)=O)CC3=CC=C(O)C=C3)=O)CO)[C@@H](NC([C@@H](N[C@]([C@@H](N8)CCC8=O)=O)CC7=CNC=N7)=O)CC1=CNC2=C1C=CC=C2.O=C(C)O`, in the assay on NCI-H295R [1], the IC50 turned out to be 5.31 µM. In addition, the maximal response with NCI-H295R [2] was -124%.
On the same counts, the results for `CCCCCCCCCCCCOCCOCCOCCOCCOCCOCCOCCOCCOCCO` are 21.1 µM and -147%.
As to `Oc1cccc[c]1[Hg][Cl]`, in the assay on NCI-H295R [1], the IC50 stood at 2.66 µM. For the same compound, the maximal response in the assay on NCI-H295R [2] was -130%.
Turning to `CCN(CC)CCNc1ccc(CO)c2sc3ccccc3c(=O)c12`, in the assay with NCI-H295R [1], the IC50 amounted to 7.5 µM. Also, the maximal response in the assay on NCI-H295R [2] is -124%.
`CO[C@@]12[C@H](COC(N)=O)C3=C(C(=O)C(C)=C(N)C3=O)N1C[C@@H]1N[C@@H]12` gave an IC50 with NCI-H295R [1] of 26.6 µM. Besides, the maximal response in the assay with NCI-H295R [2] was -132%.
The like results for `CN(C)C3=CC=C(C=C3)/C(C2=CC=C(N(C)C)C=C2)=C(C=C1)/C=C/C1=N/C` were, in that order, 21.1 µM and -167%.
In the assay with NCI-H295R [1], `OB(O)[O][Hg][c]1ccccc1` returned an IC50 of 3.76 µM. Besides, the maximal response with NCI-H295R [2] was -130%.
On the same counts, the results for `CC[C@]2(O)CC[C@H]3[C@@H]4CC\C1=C\CCC[C@@H]1[C@H]4CC[C@]23C` are 16.8 µM and -60.8%.
The like results for `Cc1cc(O)c2ccccc2c1O` were, in that order, 21.1 µM and -137%.
On the same counts, the results for `Nc1nc(N)c2nc(CNc3ccc(C(=O)N[C@@H](CCC(=O)O)C(=O)O)cc3)cnc2n1` are 8.41 µM and -79.1%.
On to `COc1cc2c(cc1OC)-c1c/c(=N\c3c(C)cc(C)cc3C)n(C)c(=O)n1CC2.Cl`, for which the IC50 with NCI-H295R [1] worked out at 21.1 µM. Also, the maximal response in the assay with NCI-H295R [2] was -149%.
The like results for `COP(=S)(OC)Oc1ccc(Sc2ccc(OP(=S)(OC)OC)cc2)cc1` were, in that order, 21.1 µM and -96.4%.
The like results for `c1ccc2c(c1)OCC(C1=NCCN1)O2` (centres undefined) were, in that order, 18.8 µM and -106%.
The like results for `CO[C@H](C(=O)[C@@H](O)[C@@H](C)O)[C@@H]1Cc2cc3cc(O[C@H]4C[C@@H](O[C@H]5C[C@@H](O)[C@H](O)[C@@H](C)O5)[C@@H](O)[C@@H](C)O4)c(C)c(O)c3c(O)c2C(=O)[C@H]1O[C@H]1C[C@@H](O[C@H]2C[C@@H](O[C@H]3C[C@](C)(O)[C@H](O)[C@@H](C)O3)[C@H](O)[C@@H](C)O2)[C@H](O)[C@@H](C)O1` were, in that order, 0.944 µM and -118%.
Take `O=C\1OC/C(=C/1)[C@H]2CC[C@@]8(O)[C@]2(C)[C@H](O)C[C@H]3[C@H]8CC[C@@H]4C[C@H](CC[C@]34C)O[C@@H]7O[C@H](C)[C@@H](O[C@H]6C[C@H](O)[C@H](O[C@H]5C[C@H](O)[C@H](O)[C@@H](C)O5)[C@@H](C)O6)[C@@H](O)C7`: the IC50 in the assay on NCI-H295R [1] turned out to be 0.188 µM. Moreover, the maximal response with NCI-H295R [2] was -111%.
In the assay with NCI-H295R [1], `NC(C(C)=C2)=CC=C2/C(C1=CC=C(N)C=C1)=C3/C=CC(C=C3)=N.Cl` returned an IC50 of 11.9 µM. Also, in the assay with NCI-H295R [2], the maximal response was -87.4%.
The like results for `CCOc1nc2cccc(C(=O)O)c2n1Cc1ccc(-c2ccccc2-c2nnn[nH]2)cc1` were, in that order, 15 µM and -145%.
As for `Nc1nc2nc[nH]c2c(=S)[nH]1`, the IC50 in the assay on NCI-H295R [1] turned out to be 1.06 µM. Moreover, the maximal response in the assay with NCI-H295R [2] was -74.1%.
On the same counts, the results for `Oc1c(Cl)cc(Cl)cc1Sc1cc(Cl)cc(Cl)c1O` are 13.3 µM and -137%.
The like results for `C=C1CC[C@H](O)C/C1=C/C=C1\CCC[C@]2(C)[C@@H]([C@H](C)CCCC(C)(C)O)CC[C@@H]12` were, in that order, 26.6 µM and -166%.
The like results for `[C@@]82([C@@]([C@@H](/C1=C/C(=O)OC1)CC2)(CC[C@@H]9[C@]7(CCC(O[C@@H]3O[C@@H]([C@H]([C@H](C3)O)O[C@@H]6O[C@@H]([C@@H](O[C@@H]5O[C@@H]([C@@H](O[C@H]4[C@@H]([C@@H](O)[C@@H]([C@H](O4)CO)O)O)[C@H](C5)OC(=O)C)C)[C@H](C6)O)C)C)C[C@H]7CC[C@@H]89)C)C)O` (some centres undefined) were, in that order, 0.188 µM and -114%.
